From ChEMBL document CHEMBL3885881, “DrugMatrix”

Species: Rattus norvegicus
Experiment: DrugMatrix - Regimen: Daily Repeat
Type: toxicity, organism-based, Sprague-Dawley
Set-up: regimen Daily Repeat, gender Male, age 6-8 weeks
Conditions: in vivo, po, route oral GAVAGE, vehicle 100 % WATER; for ABSOLUTE BASOPHIL / ABSOLUTE EOSINOPHIL / ABSOLUTE LYMPHOCYTE / ABSOLUTE MONOCYTE / ABSOLUTE SEGMENTED NEUTROPHIL / BASOPHIL / EOSINOPHIL / ERYTHROCYTE COUNT / HEMATOCRIT / HEMOGLOBIN / LEUKOCYTE COUNT / LYMPHOCYTE / MEAN CORPUSCULAR HEMOGLOBIN / MEAN CORPUSCULAR HEMOGLOBIN CONCENTRATION / MEAN CORPUSCULAR VOLUME / MONOCYTE / NEUTROPHIL / NUCLEATED RED BLOOD CELLS / PLATELET COUNT: tissue Blood; for ALANINE AMINOTRANSFERASE / ALBUMIN / ALKALINE PHOSPHATASE / ASPARTATE AMINOTRANSFERASE / BLOOD UREA NITROGEN / CARBON DIOXIDE / CHLORIDE / CHOLESTEROL / CREATINE PHOSPHOKINASE / CREATININE / GLUCOSE / LACTATE DEHYDROGENASE / LIPASE / PHOSPHORUS / POTASSIUM / SODIUM / TOTAL BILIRUBIN / TOTAL PROTEIN / URIC ACID: tissue Plasma
[1] = 0 mg/kg, 72 h, dose level Control, time 3 day
[2] = 0 mg/kg, 120 h, dose level Control, time 5 day
[3] = 39 mg/kg, 72 h, dose level Low, time 3 day

C[C@]12Cc3c[nH]nc3C[C@@H]1CC[C@@H]1[C@@H]2CC[C@@]2(C)[C@H]1CC[C@]2(C)O [STANOZOLOL]
ABSOLUTE BASOPHIL [1]: 0 CELLS/uL
ABSOLUTE EOSINOPHIL [1]: 32.5 CELLS/uL
ABSOLUTE LYMPHOCYTE [1]: 9305.83 CELLS/uL
ABSOLUTE MONOCYTE [1]: 43.83 CELLS/uL
ABSOLUTE SEGMENTED NEUTROPHIL [1]: 817.83 CELLS/uL
BASOPHIL [1]: 0%
EOSINOPHIL [1]: 0.33%
ERYTHROCYTE COUNT [1]: 5.38 x10E6/uL
HEMATOCRIT [1]: 33.63%
HEMOGLOBIN [1]: 13.17 G/DL
LEUKOCYTE COUNT [1]: 10.2 x10E3/uL
LYMPHOCYTE [1]: 91.17%
MEAN CORPUSCULAR HEMOGLOBIN [1]: 24.5 pg
MEAN CORPUSCULAR HEMOGLOBIN CONCENTRATION [1]: 39.13 G/DL
MEAN CORPUSCULAR VOLUME [1]: 62.53 fL
MONOCYTE [1]: 0.5%
NEUTROPHIL [1]: 8%
NUCLEATED RED BLOOD CELLS [1]: 0.17 /100WBC
PLATELET COUNT [1]: 858 x10E3/uL
ALANINE AMINOTRANSFERASE [1]: 55.67 u/L
ALBUMIN [1]: 4.07 G/DL
ALKALINE PHOSPHATASE [1]: 337 u/L
ASPARTATE AMINOTRANSFERASE [1]: 84 u/L
BLOOD UREA NITROGEN [1]: 13.17 mg/dL
CARBON DIOXIDE [1]: 34.17 mmol/L
CHLORIDE [1]: 99.33 MEQ/L
CHOLESTEROL [1]: 78.83 mg/dL
CREATINE PHOSPHOKINASE [1]: 576.83 u/L
CREATININE [1]: 0.17 mg/dL
GLUCOSE [1]: 152.67 mg/dL
LACTATE DEHYDROGENASE [1]: 147.83 u/L
LIPASE [1]: 9.5 u/L
PHOSPHORUS [1]: 10.78 mg/dL
POTASSIUM [1]: 6.34 MEQ/L
SODIUM [1]: 144.12 MEQ/L
TOTAL BILIRUBIN [1]: 0.18 mg/dL
TOTAL PROTEIN [1]: 6.08 G/DL
URIC ACID [1]: 0.65 mg/dL
ABSOLUTE BASOPHIL [2]: 0 CELLS/uL
ABSOLUTE EOSINOPHIL [2]: 31.17 CELLS/uL
ABSOLUTE LYMPHOCYTE [2]: 7918.33 CELLS/uL
ABSOLUTE MONOCYTE [2]: 58.33 CELLS/uL
ABSOLUTE SEGMENTED NEUTROPHIL [2]: 725.5 CELLS/uL
BASOPHIL [2]: 0%
EOSINOPHIL [2]: 0.33%
ERYTHROCYTE COUNT [2]: 5.32 x10E6/uL
HEMATOCRIT [2]: 33.53%
HEMOGLOBIN [2]: 13.17 G/DL
LEUKOCYTE COUNT [2]: 8.73 x10E3/uL
LYMPHOCYTE [2]: 90.33%
MEAN CORPUSCULAR HEMOGLOBIN [2]: 24.82 pg
MEAN CORPUSCULAR HEMOGLOBIN CONCENTRATION [2]: 39.33 G/DL
MEAN CORPUSCULAR VOLUME [2]: 63.12 fL
MONOCYTE [2]: 0.67%
NEUTROPHIL [2]: 8.67%
NUCLEATED RED BLOOD CELLS [2]: 0 /100WBC
PLATELET COUNT [2]: 1144.83 x10E3/uL
ALANINE AMINOTRANSFERASE [2]: 60.5 u/L
ALBUMIN [2]: 3.97 G/DL
ALKALINE PHOSPHATASE [2]: 343.17 u/L
ASPARTATE AMINOTRANSFERASE [2]: 80.83 u/L
BLOOD UREA NITROGEN [2]: 15 mg/dL
CARBON DIOXIDE [2]: 31 mmol/L
CHLORIDE [2]: 99.75 MEQ/L
CHOLESTEROL [2]: 71.5 mg/dL
CREATINE PHOSPHOKINASE [2]: 237.17 u/L
CREATININE [2]: 0.17 mg/dL
GLUCOSE [2]: 137 mg/dL
LACTATE DEHYDROGENASE [2]: 146.17 u/L
LIPASE [2]: 11.5 u/L
PHOSPHORUS [2]: 10.13 mg/dL
POTASSIUM [2]: 6 MEQ/L
SODIUM [2]: 145 MEQ/L
TOTAL BILIRUBIN [2]: 0.13 mg/dL
TOTAL PROTEIN [2]: 5.82 G/DL
URIC ACID [2]: 0.62 mg/dL
ABSOLUTE BASOPHIL [3]: 0 CELLS/uL
ABSOLUTE EOSINOPHIL [3]: 60.33 CELLS/uL
ABSOLUTE LYMPHOCYTE [3]: 8653.33 CELLS/uL
ABSOLUTE MONOCYTE [3]: 60.33 CELLS/uL
ABSOLUTE SEGMENTED NEUTROPHIL [3]: 526 CELLS/uL
BASOPHIL [3]: 0%
EOSINOPHIL [3]: 0.67%
ERYTHROCYTE COUNT [3]: 5.9 x10E6/uL
HEMATOCRIT [3]: 35.57%
HEMOGLOBIN [3]: 13.63 G/DL
LEUKOCYTE COUNT [3]: 9.3 x10E3/uL
LYMPHOCYTE [3]: 93.33%
MEAN CORPUSCULAR HEMOGLOBIN [3]: 23.13 pg
MEAN CORPUSCULAR HEMOGLOBIN CONCENTRATION [3]: 38.33 G/DL
MEAN CORPUSCULAR VOLUME [3]: 60.33 fL
MONOCYTE [3]: 0.67%
NEUTROPHIL [3]: 5.33%
NUCLEATED RED BLOOD CELLS [3]: 0 /100WBC
PLATELET COUNT [3]: 1025.67 x10E3/uL
ALANINE AMINOTRANSFERASE [3]: 58 u/L
ALBUMIN [3]: 4.17 G/DL
ALKALINE PHOSPHATASE [3]: 448.33 u/L
ASPARTATE AMINOTRANSFERASE [3]: 81 u/L
BLOOD UREA NITROGEN [3]: 13.67 mg/dL
CARBON DIOXIDE [3]: 34.67 mmol/L
CHLORIDE [3]: 99.33 MEQ/L
CHOLESTEROL [3]: 57.33 mg/dL
CREATINE PHOSPHOKINASE [3]: 465.67 u/L
CREATININE [3]: 0.14 mg/dL
GLUCOSE [3]: 134.67 mg/dL
LACTATE DEHYDROGENASE [3]: 171.33 u/L
LIPASE [3]: 9 u/L
PHOSPHORUS [3]: 11.43 mg/dL
POTASSIUM [3]: 6.05 MEQ/L
SODIUM [3]: 145.03 MEQ/L
TOTAL BILIRUBIN [3]: 0.2 mg/dL
TOTAL PROTEIN [3]: 6.13 G/DL
URIC ACID [3]: 0.6 mg/dL
